{
  "source": "paper PMC9632963",
  "about": "“Preclinical characterization and phase I clinical trial of CT053PTSA targets MET, AXL, and VEGFR2 in patients with advanced solid tumors” (Frontiers in Immunology, 2022)",
  "origin": "cited, not measured here",
  "key": {"[1]": {"test_system": "Japanese patients with NSCLC", "parameters": "method as in PMID 30718102", "conditions": "cited from earlier work"}, "[2]": {"parameters": "method as in PMID 27734291", "conditions": "cited from earlier work"}, "MET [3]": {"test_system": "MET", "parameters": "method as in PMID 18089725", "conditions": "NCI-H69 cells; read-out: IC50, phosphorylation of MET; cited from earlier work"}, "MET [4]": {"test_system": "MET", "parameters": "method as in PMID 18089725", "conditions": "HOP92 cells; read-out: IC50, phosphorylation of MET; cited from earlier work"}, "patients": {"test_system": "patients", "parameters": "method as in PMID 30833489", "conditions": "20/50 patients; cited from earlier work"}},
  "note": "Where two headings read alike, the source gives them in different places.",
  "data": [
    {"smiles": "COc1cc2nccc(Oc3ccc(NC(=O)C4(C(=O)Nc5ccc(F)cc5)CC4)cc3)c2cc1OC", "note": "[cabozantinib]", "values": [
      {"measurement": "patients with ≥ grade 3 AEs", "setting": "[1]; 16/23 patients", "result": 70, "unit": "%"},
      {"measurement": "AE: diarrhea", "setting": "[1]", "result": 78, "unit": "%"},
      {"measurement": "AE: hypertension", "setting": "[1]", "result": 87, "unit": "%"},
      {"measurement": "AE: increased alanine aminotransferase", "setting": "[1]", "result": 95, "unit": "%"},
      {"measurement": "AE: increased aspartate aminotransferase", "setting": "[1]", "result": 95, "unit": "%"},
      {"measurement": "AE: palmar-plantar erythrodysesthesia", "setting": "[1]", "result": 100, "unit": "%"},
      {"measurement": "half-life", "setting": "[2]", "result": "108 to 126", "unit": "h"},
      {"measurement": "median Tmax", "setting": "[2]", "result": 4, "unit": "h"}
    ]},
    {"smiles": "C[C@@H](Oc1cc(-c2cnn(C3CCNCC3)c2)cnc1N)c1c(Cl)ccc(F)c1Cl", "note": "[crizotinib]", "values": [
      {"measurement": "IC50", "setting": "MET [3]", "result": "[…]"},
      {"measurement": "IC50", "setting": "MET [4]", "result": 16, "unit": "nM"}
    ]},
    {"smiles": "Cc1ccc(C(=O)Nc2ccc(Oc3cc4cnn(C)c4cc3-c3cn[nH]c3)c(F)c2)c(=O)n1-c1ccc(F)cc1", "note": "[merestinib]", "values": [
      {"measurement": "patients with ≥ grade 3 TRAEs", "setting": "patients", "result": 40, "unit": "%"}
    ]}
  ]
}
